# Test results taken from PubChem BioAssay (NCI).
# Where “and” joins values, the source holds several entries; their conditions need not be identical. Identical values can stand only once.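 Cells were grown in 96-well plates and exposed to each compound for 48 hours at five concentrations; endpoints were interpolated linearly between bracketing concentrations, or set to the highest concentration if not reached. Abbreviation: GI50, concentration required for 50% inhibition of growth. TGI is the concentration that stops growth completely.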
# System: MDA-MB-468 breast
# Test: NCI-60 cell line screen, 48 h
Structure (SMILES),GI50,TGI
CS(=O)(=O)Nc1cc(-c2ccc3ncc(C#N)c(Nc4ccc(F)c(Cl)c4)c3c2)cnc1Cl,0.0676 µM,0.396 µM
O=C1c2ccccc2C(=O)c2c1oc1cc(O)c(Cl)cc21,1.13 µM,7.23 µM
NS(=O)(=O)c1ccc(N=Nc2c(O)[nH]c3ccc(C(=O)NCCCn4ccnc4)cc23)cc1,> 25 µM,> 25 µM
Cc1ccc(NC(=S)NNC(=S)Nc2ccc(C)cc2)cc1,2.82 µM,7.58 µM
CC(C)C[C@H](NC(=O)[C@@H](Cc1ccccc1)n1ccc(Nc2ccccc2)cc1=O)B(O)O,0.236 µM,1.29 µM
O=C(/C=C(/C=C/c1cccc2[nH]ccc12)OB(F)F)/C=C/c1cccc2[nH]ccc12,0.473 µM,3.12 µM
Nc1nc2ccc(CNc3ccc(C(=O)NC(CC(=O)O)C(=O)O)cc3)cc2c(=O)[nH]1 (stereo not drawn),9.09 µM,> 100 µM
CC(C)[C@@]12C[C@@H](OC(=O)COC(=O)c3ccccc3)[C@@](C)(O1)[C@@H]1CC[C@@H](C)[C@H]1[C@@H]2OC(=O)/C=C/c1ccccc1,> 81.2 µM,> 100 µM
CSC1=CC(=O)c2ccccc2C1=O,0.26 µM,1.09 µM
Nc1nc(N)c2cc(S(=O)(=O)c3ccc4ccccc4c3)ccc2n1,2.43 µM,> 100 µM
CC(C)n1cc(-c2ccc3c(c2)N(C)CC3)c2c(NS(=O)(=O)c3ccn(C)n3)ccnc21,41.1 µM,> 100 µM
c1cc[n+](Cc2c3ccccc3cc3c2ccc2ccccc23)cc1,0.426 µM,2.68 µM
Cc1[nH]c(C(=O)Nc2cccc(OC3CCNCC3)c2)c(Cl)c1Cl,1.87 µM,3.68 µM
C[C@@]12CC[C@@H](O)C[C@@H]1CC[C@H]1[C@H]2CC[C@@]2(C)[C@H](c3ccc(=O)oc3)CC[C@@]12O,0.0278 µM,0.0811 µM
CCOc1cc(Cl)c(C(C)NC(=O)c2cccc(OC)c2)cc1OCC (stereo not drawn),3.38 µM,64.6 µM
Cn1cc(-c2csc(-c3ccccc3)n2)c2cccnc21,14.2 µM,48.4 µM
COc1cc(C)c(-c2ccc(OC)c(=O)cc2C)c(OC)c1OC,–,> 100 µM
CCN1CCN(Cc2ccc(Nc3ncc(F)c(-c4cc(F)c5nc(C)n(C(C)C)c5c4)n3)nc2)CC1,6.95 µM,14 µM
C[n+]1cccc(NC(=O)c2ccc3ccc4ccc(C(=O)Nc5ccc[n+](C)c5)nc4c3n2)c1,0.252 µM,1.29 µM
Cn1c2c(c3ccccc31)CCN1C[C@@H]3CCCC[C@H]3C[C@@H]21,1.77 µM,8.73 µM
Cc1ccc(C2=NN(c3ccc(S(=O)(=O)NC(=O)NCc4ccccc4)cc3)C(c3ccc(N(C)C)cc3)C2)c(C)c1 (stereo not drawn),2.36 µM,6.11 µM
COc1cccc(C(=O)NNc2nc(Cl)nc(N3CCN(C(c4ccccc4)c4ccccc4)CC3)n2)c1,2.4 µM,8.11 µM
CCc1ccc(Oc2c(-c3ccc(OCCc4cccc(C(F)(F)F)c4)cc3O)n[nH]c2C(F)(F)F)cc1,1.87 µM,7.96 µM
CC(C)c1cnc(-c2cc(Cl)ccc2F)cc1Nc1ccncc1C(=O)NC(CO)CO,8.35 µM,32.7 µM
COc1ccc2[nH]c(C(=O)OCc3ccc4c(Br)cc(Br)c(O)c4n3)cc2c1,0.822 µM,2.46 µM
CCCCCCCCCCCCCCCC(=O)NS(=O)(=O)OC[C@H]1O[C@@H](n2cnc3c(N)ncnc32)[C@H](O)[C@@H]1O,< 0.0328 µM,–
CCN1CCN(Cc2ccc(NC(=O)Nc3nc(-c4cc(OC)c(OC)c(OC)c4)cs3)cc2C(F)(F)F)CC1,1.43 µM,3.03 µM
CS(=O)(=O)c1nccc(-c2c(-c3ccc(F)c(OCCc4ccccc4)c3)nc3sccn23)n1,2.57 µM,7.36 µM

Structure (SMILES),GI50,TGI
Cc1c(O)cccc1C(=O)N[C@@H](CSc1ccccc1)[C@H](O)CN1C[C@H]2CCCC[C@H]2C[C@H]1C(=O)NC(C)(C)C,3.89 µM,15.2 µM
COc1cccc2nc(Nc3cccc(NC(=O)c4ccc(N5CCN(C)CC5)c(C(F)(F)F)c4)c3)ccc12,1.11 µM,3.65 µM
Cc1nc2ccc(-n3ncc(C(=O)c4cc5ccccc5[nH]4)c3N)cc2[nH]1,12.5 µM,43.2 µM
NC(=O)c1c[nH]c2ncnc(N)c12,18.8 µM,90.1 µM
COc1ccc(N=Nc2ccc(O)c(=O)cc2)cc1,2.61 µM,18.7 µM
CC1(C)CC[C@]23CC[C@]4(C)[C@H](CC[C@@H]5[C@@]6(C)CCCNC(C)(C)[C@@H]6CC[C@]54C)[C@H]2[C@H]1OC3,1.61 µM,3.45 µM
ClC(Cl)c1nc(-c2ccco2)n2nc(-c3ccccc3)cc2n1,0.322 µM,1.15 µM
Clc1nc(Cl)c2ncn(-c3ccccc3)c2n1,2.71 µM,8.39 µM
CN1C(=O)C(N=Nc2ccc([N+](=O)[O-])cc2)SC1=S (stereo not drawn),4.33 µM and 9.92 µM,30.6 µM and 56.6 µM
COc1cc(/C=C2\CCC/C(=C\c3cc(CN4CCCC4)c(O)c(OC)c3)C2=O)cc(CN2CCCC2)c1O,1.7 µM,4.07 µM
CC1(C)N=C(N)N=C(N)N1c1ccc(OCC(=O)Nc2ccc(S(=O)(=O)F)cc2Cl)c(Cl)c1,1.84 µM,> 100 µM
CCN1C(=O)/C(=c2\sc3n(c2=O)C2C(NN=3)N(CC)C(=O)N2CC)c2ccccc21 (stereo not drawn),0.336 µM,8.33 µM
CS(=O)(=O)N1CCC(Nc2ncc(C(=O)c3c(F)cccc3F)c(N)n2)CC1,12.4 µM,> 25 µM
Nc1c(C(=O)Nc2cccc(Cl)c2)sc2nc3c(cc12)C(O)CCC3 (stereo not drawn),0.257 µM,15.2 µM
C=C(C(=O)c1ccccc1)C(NC(C)(C)C)c1ccccc1 (stereo not drawn),0.566 µM,1.96 µM
COc1ccc(-c2nc3sccn3c2-c2ccnc(NCCNS(=O)(=O)c3ccc(C(F)(F)F)cc3)n2)cc1,1.19 µM,7.62 µM
COc1cc2c(Nc3ccc(-c4ccc(N)cc4)cc3)ncnc2c(OC)c1OC,11.2 µM,49 µM
O=S(=O)(NCCNc1nccc(-c2c(-c3ccc(F)cc3)nc3sccn23)n1)c1ccc(O)cc1,3.37 µM,48.2 µM
O=C(O)c1ccc(CSc2nc3ccccc3[nH]2)cc1,> 100 µM,> 100 µM
COc1ccccc1CNCCCN1C(=O)c2ccc3c4c(ccc(c24)C1=O)C(=O)N(CCCNCCCCNCCCN)C3=O,0.131 µM,0.273 µM
CC[C@]12C=CCN3CC[C@@]4(c5ccc(OC)cc5N(C)[C@H]4[C@@](O)(C(=O)OC)[C@@H]1OC(=O)CCC(=O)O[C@H]1CC[C@H]4[C@@H]5CCC6=CC(=O)CC[C@@H]6[C@H]5CC[C@]14C)[C@@H]32,1.42 µM,5.9 µM
CC[C@]12C=CCN3CC[C@]4(C(=C(C(=O)OC)C1)Nc1cc5c(cc14)[C@@H]1[C@H](O5)[C@@H](O)[C@@]4(CC)CC(C(=O)OC)=C5Nc6ccccc6[C@@]56CCN1[C@@H]46)[C@@H]32,0.147 µM and 0.183 µM,1.54 µM and 1.62 µM
COc1ccc(-c2cc(=O)c3c(OC)c4ccoc4c(/C=C/C=O)c3o2)cc1,3.58 µM,14.4 µM
O=C1/C(=C/c2ccc(Cl)cc2)CN(Cc2cn(CCCNc3ccnc4cc(Cl)ccc34)nn2)C/C1=C\c1ccc(Cl)cc1,1.4 µM,3.5 µM
COc1ccc(OC)c(C2=C(c3cn(C)c4ccccc34)C(=O)NC2=O)c1,> 25 µM,> 25 µM
C#C[C@]1(O)CC[C@H]2[C@@H]3CC=C4c5sc(-c6ccc(C)cc6)nc5CC[C@]4(C)[C@H]3CC[C@@]21C,> 100 µM,> 100 µM
CC(=O)Oc1ccc(C2OC(c3ccc4ccccc4c3OC(C)=O)=NN2C(C)=O)c(OC(C)=O)c1 (stereo not drawn),0.401 µM,3.22 µM
